Results taken from patent US20240270715A1, “INHIBITORS OF TRANSGLUTAMINASES” (ZEDIRA GMBH, priority 2021, published 2024).

Legend:
[1] = Caco-2 permeability assay (CacoReady kit); format: in vitro ADME; conditions: human
How it was run: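 Apparent permeability coefficients (Papp) were measured across Caco-2 cell barriers using a ready-to-use kit run per the supplier's protocol. Values serve as a predictor of oral/intestinal bioavailability.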

[2] = Log D by shake flask method (octanol / PBS pH 7.4, HPLC); format: physicochemical; conditions: octanol / PBS pH 7.4, shake flask; read-out: logD
How it was run: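 Shake-flask partitioning of compound between octanol and PBS at pH 7.4, with phase concentrations quantified by HPLC. The value reported is Log D.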

[3] = target: T1, recombinant human transglutaminase 2 (Homo sapiens, UniProt P21980); experiment: Transglutaminase assay: incorporation of dansylcadaverine into dimethylcasein (DCC-assay); format: biochemical; conditions: recombinant human TG2 10 nM, dansylcadaverine/dimethylcasein; read-out: IC50 TG2
T1 sequence (P21980 1-687): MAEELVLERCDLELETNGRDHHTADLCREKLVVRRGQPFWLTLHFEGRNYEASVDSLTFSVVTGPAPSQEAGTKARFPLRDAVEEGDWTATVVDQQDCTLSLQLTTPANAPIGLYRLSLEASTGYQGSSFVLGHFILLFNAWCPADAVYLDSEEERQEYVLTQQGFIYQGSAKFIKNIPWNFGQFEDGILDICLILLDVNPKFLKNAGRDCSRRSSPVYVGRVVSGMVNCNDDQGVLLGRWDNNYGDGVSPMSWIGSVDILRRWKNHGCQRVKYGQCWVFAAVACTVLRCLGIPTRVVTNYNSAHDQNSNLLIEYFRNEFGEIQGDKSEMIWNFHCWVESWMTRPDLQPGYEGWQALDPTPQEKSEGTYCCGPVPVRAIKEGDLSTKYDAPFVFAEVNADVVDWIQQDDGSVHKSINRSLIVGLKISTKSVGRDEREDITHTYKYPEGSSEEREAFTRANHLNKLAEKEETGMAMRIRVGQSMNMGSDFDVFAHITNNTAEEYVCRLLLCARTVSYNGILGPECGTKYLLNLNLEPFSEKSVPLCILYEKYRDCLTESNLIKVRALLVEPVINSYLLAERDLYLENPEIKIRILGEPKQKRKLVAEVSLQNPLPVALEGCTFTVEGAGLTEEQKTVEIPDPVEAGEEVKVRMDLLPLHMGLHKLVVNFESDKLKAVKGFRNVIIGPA
How it was run: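 Recombinant human TG2 (10 nM final) incorporates dansylcadaverine (16.7 μM) into N,N-dimethylcasein (4 μM) in Tris-HCl buffer, pH 8.0, with 10 mM CaCl2 and 10 mM glutathione. Fluorescence (λex 330, λem 500 nm) followed 30 min. The slope between 20–30 min gives activity versus DMSO control, and IC50 comes from the concentration–activity plot.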

Row | Papp [1] [×10⁻⁶ cm/s] | logD [2] | IC50 [3] [nM] | Structure (SMILES)
1 | < 1 | < 1 | 150 to 600 | CCNC(=O)C(=O)CC[C@H](NC(=O)c1cc2ccc(N(C)C)cc2o1)C(=O)Nc1cccn(CC(=O)NC23CC(C2)C3)c1=O [Compound I-109, (S)-N1-(1-(2-(bicyclo[1.1.1]pentan-1-ylamino)-2-oxoethyl)-2-oxo-1,2-dihydropyridin-3-yl)-2-(6-(dimethylamino)benzofuran-2-carboxamido)-N6-ethyl-5-oxohexanediamide]
2 | 1 to 10 | 1 to 3 | 150 to 600 | CCNC(=O)C(=O)CC[C@H](NC(=O)c1nc2ccccc2s1)C(=O)Nc1cccn(CC(=O)N[C@@H]2C[C@@H]3CC[C@H]2C3)c1=O [Compound I-97, (S)-2-(benzo[d]thiazole-2-carboxamido)-N1-(1-(2-((1S,2R,4R)-bicyclo[2.2.1]heptan-2-ylamino)-2-oxoethyl)-2-oxo-1,2-dihydropyridin-3-yl)-N6-ethyl-5-oxohexanediamide]
3 | < 1 | 3 to 5 | 600 to 3500 | CCNC(=O)C(=O)CC[C@H](NC(=O)c1ccc2cnccc2n1)C(=O)Nc1cccn(CC(=O)NC2C3CC4CC2CC(CC)(C4)C3)c1=O (stereo partly drawn) [Compound I-106, (S)-N1-ethyl-N6-(1-(2-(5-ethyladamantane-2-amino)-2-oxoethyl)-2-oxo-1,2-dihydropyridin-3-yl)-5-(1,6-naphthyridine-2-carboxamido)-2-oxohexanediamide]
4 | < 1 | < 1 | 150 to 600 | CCNC(=O)C(=O)CC[C@H](NC(=O)c1ccc2occc2c1)C(=O)Nc1cccn(CC(=O)NC2C3CC4CC2CC(NC(C)=O)(C4)C3)c1=O (stereo partly drawn) [Compound I-113, (S)-2-(benzofuran-5-carboxamido)-N6-ethyl-N1-(1-(2-(1-acetylamino-4-aminoadamantane)-2-oxoethyl)-2-oxo-1,2-dihydropyridin-3-yl)-5-oxohexanediamide]
5 | < 1 | < 1 | 150 to 600 | CCNC(=O)C(=O)CC[C@H](NC(=O)c1ccc2ccoc2c1)C(=O)Nc1cccn(CC(=O)NC2C3CC4CC2CC(C(N)=O)(C4)C3)c1=O (stereo partly drawn) [Compound I-114, (S)-2-(benzofuran-6-carboxamido)-N6-ethyl-N1-(1-(2-(4-aminoadamantane-1-carboxamide)-2-oxoethyl)-2-oxo-1,2-dihydropyridin-3-yl)-5-oxohexanediamide]
6 | < 1 | < 1 | 150 to 600 | CCNC(=O)C(=O)CC[C@H](NC(=O)c1snnc1C=O)C(=O)Nc1cccn(CC(=O)NC2C3CC4CC(C3)CC2C4)c1=O (stereo partly drawn) [Compound I-120, (S)-N1-ethyl-5-(4-formyl-1,2,3-thiadiazole-5-carboxamido)-N6-(1-(2-(2-adamantylamino)-2-oxoethyl)-2-oxo-1,2-dihydropyridin-3-yl)-2-oxohexanediamide]

The next lines start with the compound.

Row | Structure (SMILES) | Papp [1] [×10⁻⁶ cm/s] | logD [2] | IC50 [3] [nM]
7 | CCNC(=O)C(=O)CC[C@H](NC(=O)c1c[nH]cc1C(C)(C)C)C(=O)Nc1cccn(CCC23CC4CC(CC(C4)C2)C3)c1=O [Compound I-85] | 1 to 10 | 3 to 5 | 600 to 3500
8 | CCNC(=O)C(=O)CC[C@H](NC(=O)c1nn[nH]n1)C(=O)Nc1cccn(CC(=O)NC2C3CC4CC(C3)CC2C4)c1=O (stereo partly drawn) [Compound I-57, (S)-N1-ethyl-N6-(1-(2-(2-adamantylamino)-2-oxoethyl)-2-oxo-1,2-dihydropyridin-3-yl)-2-oxo-5-(2H-tetrazole-5-carboxamido)hexanediamide] | < 1 | < 1 | 600 to 3500
9 | CCNC(=O)C(=O)CC[C@H](NC(=O)c1cc2c(F)c(F)ccc2[nH]1)C(=O)Nc1cccn(CC(=O)NC2C3CC4CC(C3)CC2C4)c1=O (stereo partly drawn) [Compound I-36, (S)-2-(4,5-difluoro-1H-indole-2-carboxamido)-N6-ethyl-N1-(1-(2-(2-adamantylamino)-2-oxoethyl)-2-oxo-1,2-dihydropyridin-3-yl)-5-oxohexanediamide] | 1 to 10 | 3 to 5 | < 150
10 | CCNC(=O)C(=O)CC[C@H](NC(=O)c1cncn1C)C(=O)Nc1cccn(CC(=O)NC23CC4CC(CC(CC)(C4)C2)C3)c1=O [Compound I-5, (S)-N1-ethyl-N6-(1-(2-(3-ethyladamantane-1-amino)-2-oxoethyl)-2-oxo-1,2-dihydropyridin-3-yl)-5-(1-methyl-1H-imidazole-5-carboxamido)-2-oxohexanediamide] | < 1 | 1 to 3 | 150 to 600
11 | CCNC(=O)C(=O)CC[C@H](NC(=O)C1Cc2ccccc2C1)C(=O)Nc1cccn(CC(=O)NC2C3CC4CC(C3)CC2C4)c1=O (stereo partly drawn) [Compound I-39, (S)-2-(2,3-dihydro-1H-indene-2-carboxamido)-N6-ethyl-N1-(1-(2-(2-adamantylamino)-2-oxoethyl)-2-oxo-1,2-dihydropyridin-3-yl)-5-oxohexanediamide] | 1 to 10 | 3 to 5 | < 150
12 | CCNC(=O)C(=O)CC[C@H](NC(=O)C1CCc2ccccc2C1)C(=O)Nc1cccn(CC(=O)NC2C3CC4CC2CC(C(=O)N(C)C)(C4)C3)c1=O (stereo partly drawn) [Compound I-93, (5S)-N1-ethyl-N6-(1-(2-(4-aminoadamantane-N,N-dimethyl-1-carboxamide)-2-oxoethyl)-2-oxo-1,2-dihydropyridin-3-yl)-2-oxo-5-(1,2,3,4-tetrahydronaphthalene-2-carboxamido)hexanediamide] | < 1 | < 1 | 150 to 600
13 | CCNC(=O)C(=O)CC[C@H](NC(=O)c1cnc(C)n1C)C(=O)Nc1cccn(CC(=O)NC23CC4CC(CC(C)(C4)C2)C3)c1=O [Compound I-27, (S)-2-(1,2-dimethyl-1H-imidazole-5-carboxamido)-N6-ethyl-N1-(1-(2-(3-methyladamantane-1-amino)-2-oxoethyl)-2-oxo-1,2-dihydropyridin-3-yl)-5-oxohexanediamide] | < 1 | 1 to 3 | 600 to 3500
14 | CCNC(=O)C(=O)CC[C@H](NC(=O)c1cnc(C)n1C)C(=O)Nc1cccn(CC(=O)NC23CC4CC(C)(CC(C)(C4)C2)C3)c1=O [Compound I-24, (S)-2-(1,2-dimethyl-1H-imidazole-5-carboxamido)-N6-ethyl-N1-(1-(2-(3,5-dimethyladamantane-1-amino)-2-oxoethyl)-2-oxo-1,2-dihydropyridin-3-yl)-5-oxohexanediamide] | < 1 | 1 to 3 | 150 to 600
15 | CCNC(=O)C(=O)CC[C@H](NC(=O)c1cncnc1C)C(=O)Nc1cccn(CC(=O)NC2C3CC4CC2CC(C(=O)O)(C4)C3)c1=O (stereo partly drawn) [Compound I-92, (S)-N1-ethyl-N6-(1-(2-(5-carboxy-2-aminoadamantane)-2-oxoethyl)-2-oxo-1,2-dihydropyridin-3-yl)-5-(4-methylpyrimidine-5-carboxamido)-2-oxohexanediamide] | < 1 | < 1 | 150 to 600
16 | CCNC(=O)C(=O)CC[C@H](NC(=O)c1cc(C#N)cn1C)C(=O)Nc1cccn(CCCC23CC4CC(CC(C4)C2)C3)c1=O [Compound I-86] | 1 to 10 | 3 to 5 | 600 to 3500
17 | CCNC(=O)C(=O)CC[C@H](NC(=O)c1oc2ccccc2c1C)C(=O)Nc1cccn(CC(=O)N[C@@H]2C[C@@H]3CC[C@H]2C3)c1=O [Compound I-68, (S)-N1-(1-(2-((1S,2R,4R)-bicyclo[2.2.1]heptan-2-ylamino)-2-oxoethyl)-2-oxo-1,2-dihydropyridin-3-yl)-N6-ethyl-2-(3-methylbenzofuran-2-carboxamido)-5-oxohexanediamide] | 1 to 10 | 1 to 3 | < 150
